Patent US20260078120A1, “SUBSTITUTED PYRIDOPYRIMIDINONES” (MIRATI THERAPEUTICS, INC., priority 2022, published 2026)

Tests used:
[1] = tested on: T47D (PI3Kα H1047R mutant) cells; test: CellTiter-Glo 2.0 luminescent cell viability assay, 72 hours, T47D cells; assay type: cell-based; details: Homo sapiens, T47D, 72 h, T47D (PI3Kα H1047R mutant) cells, CellTiter-Glo, approximately 72 hours; read-out: T47D (H1047R mutant) Viability IC50
Experimental: This Example illustrates that exemplary compounds of the present invention decrease the viability of cells.
(§1) The ability of a compound of Formula (I) to decrease the viability of cells was measured using CellTiter-Glo 2.0 (CTG) Luminescent Cell Viability Assay (#G9241) obtained from Promega (Madison, WI).
To prepare assay plates for viability assays, cells were trypsinized, resuspended in fresh media, and viable cells were counted utilizing trypan blue exclusion. T47D, SKBR3, or MKN1 cells were seeded at 1000 cells in 30 μl per well in a solid white flat bottom 384 cell culture plate (Perkin Elmer #6007680) and incubated at 37° C. overnight.
(§2) Assay day 1, cells were dosed using an Echo Liquid Handler (Beckman Coulter) with compounds at a 10 um starting concentration and serially diluted (1:4) for a total of 10 concentrations. Cells were incubated for approximately 72 hours with the compounds (solubilized in DMSO) at 37° C. After 72 hours of treatment, cell plates were equilibrated to room temperature before adding 15 μl of CTG to each well, plates were then covered in aluminum foil to protect from light, incubated at room temperature for 30 minutes on a microtiter plate shaker, and luminescence readings were collected using a CLARIOstar microplate reader (BMG Labtech, Germany). Percent of vehicle control values were plotted as log (inhibitor) vs. response-Variable slope (four parameters) for curve fitting and IC50 values were determined using XLfit.

[2] = tested on: SKBR3 (PI3Kα wild type) cells; test: CellTiter-Glo 2.0 luminescent cell viability assay, 72 hours, SKBR3 cells; assay type: cell-based; details: Homo sapiens, SK-BR-3, 72 h, SKBR3 (PI3Kα wild type) cells, CellTiter-Glo, approximately 72 hours; read-out: SKBR3 (WT) Viability IC50
Experimental: as §1
To prepare assay plates for viability assays, cells were trypsinized, resuspended in fresh media, and viable cells were counted utilizing trypan blue exclusion.
as §2

| SMILES | IC50 [1] [µM] | IC50 [2] [µM] |
| --- | --- | --- |
| Cc1cc([C@@H](C)Nc2cnc(Cl)nc2C(=O)O)c2nc(N3Cc4ccccc4C3)c(C#N)c(=O)n2c1 [Example 11-325, (R)-2-chloro-5-((1-(3-cyano-2-(isoindolin-2-yl)-7-methyl-4-oxo-4H-pyrido[1,2-a]pyrimidin-9-yl)ethyl)amino)pyrimidine-4-carboxylic acid] | 3.08 | > 10 |
| Cc1cc([C@@H](C)Nc2ccccc2C(=O)O)c2nc(N3CCN(C4CCOCC4)CC3)c(C)c(=O)n2c1 [Example 11-187, (R)-2-((1-(3,7-dimethyl-4-oxo-2-(4-(tetrahydro-2H-pyran-4-yl)piperazin-1-yl)-4H-pyrido[1,2-a]pyrimidin-9-yl)ethyl)amino)benzoic acid] | 0.406 | > 10 |
| Cc1cc([C@@H](C)Nc2ccccc2C(=O)O)c2nc(N3CCc4sc(C)nc4C3)c(C#N)c(=O)n2c1 [Example 11-305, (R)-2-((1-(3-cyano-7-methyl-2-(2-methyl-6,7-dihydrothiazolo[4,5-c]pyridin-5(4H)-yl)-4-oxo-4H-pyrido[1,2-a]pyrimidin-9-yl)ethyl)amino)benzoic acid] | 0.501 | > 10 |
| Cc1cc([C@@H](C)Nc2ccnnc2)c2nc(N3CCC(F)(F)CC3)c(C#N)c(=O)n2c1 [Example 11-145, (R)-2-(4,4-difluoropiperidin-1-yl)-7-methyl-4-oxo-9-(1-(pyridazin-4-ylamino)ethyl)-4H-pyrido[1,2-a]pyrimidine-3-carbonitrile] | > 10 | > 10 |
| Cc1cc([C@@H](C)Nc2ccccc2C(=O)O)c2nc(N3C[C@@H]4C[C@H]3CN4c3ccc(C#N)cc3)c(C#N)c(=O)n2c1 [Example 11-175, 2-(((R)-1-(3-cyano-2-((1S,4S)-5-(4-cyanophenyl)-2,5-diazabicyclo[2.2.1]heptan-2-yl)-7-methyl-4-oxo-4H-pyrido[1,2-a]pyrimidin-9-yl)ethyl)amino)benzoic acid] | 3 | > 10 |
| Cc1cc(C(C)Nc2cccc(C(=O)O)c2)c2nc(N3CCCCC3)cc(=O)n2c1 (stereo not drawn) [Example 11-389, 3-((1-(7-methyl-4-oxo-2-(piperidin-1-yl)-4H-pyrido[1,2-a]pyrimidin-9-yl)ethyl)amino)benzoic acid] | > 10 | > 10 |
| Cc1cc([C@@H](C)Nc2ccccc2C(=O)O)c2nc(N3CC4CC(C3)O4)c(C#N)c(=O)n2c1 [Example 11-322, 2-(((1R)-1-(2-(6-oxa-3-azabicyclo[3.1.1]heptan-3-yl)-3-cyano-7-methyl-4-oxo-4H-pyrido[1,2-a]pyrimidin-9-yl)ethyl)amino)benzoic acid] | 0.711 | > 10 |
| Cc1cc(C(C)Nc2ccccc2C(=O)O)c2nc(-c3cccnc3)cc(=O)n2c1 (stereo not drawn) [Example 11-401, 2-((1-(7-methyl-4-oxo-2-(pyridin-3-yl)-4H-pyrido[1,2-a]pyrimidin-9-yl)ethyl)amino)benzoic acid] | 3.27 | > 10 |
| Cc1cc([C@@H](C)Nc2ccccc2C(=O)O)c2nc(NCC3CC(F)(F)C3)c(C)c(=O)n2c1 [Example 11-199, (R)-2-((1-(2-(((3,3-difluorocyclobutyl)methyl)amino)-3,7-dimethyl-4-oxo-4H-pyrido[1,2-a]pyrimidin-9-yl)ethyl)amino)benzoic acid] | 0.498 | > 10 |
| Cc1cc([C@@H](C)Nc2ccc(Cl)nc2C(=O)O)c2nc(N3Cc4ccncc4C3)c(C#N)c(=O)n2c1 [Example 11-147, (R)-6-chloro-3-((1-(3-cyano-2-(1,3-dihydro-2H-pyrrolo[3,4-c]pyridin-2-yl)-7-methyl-4-oxo-4H-pyrido[1,2-a]pyrimidin-9-yl)ethyl)amino)picolinic acid] | 1.04 | > 10 |
| Cc1cc([C@@H](C)Nc2cc(Cl)nnc2C(=O)O)c2nc(N3Cc4ccccc4C3)c(C)c(=O)n2c1 [Example 11-276, (R)-6-chloro-4-((1-(2-(isoindolin-2-yl)-3,7-dimethyl-4-oxo-4H-pyrido[1,2-a]pyrimidin-9-yl)ethyl)amino)pyridazine-3-carboxylic acid] | > 10 | > 10 |
| Cc1cc(C(C)Nc2cnc(Cl)cc2C(=O)O)c2nc(N3Cc4ccccc4C3)c(C)c(=O)n2c1 (stereo not drawn) [Example 11-348, 2-chloro-5-((1-(2-(isoindolin-2-yl)-3,7-dimethyl-4-oxo-4H-pyrido[1,2-a]pyrimidin-9-yl)ethyl)amino)isonicotinic acid] | 5.49 | > 10 |

The next lines start with the values.

| IC50 [1] [µM] | IC50 [2] [µM] | SMILES |
| --- | --- | --- |
| 0.306 | > 10 | Cc1cc([C@@H](C)Nc2ccccc2C(=O)O)c2nc(N3CC(C(F)F)C3)c(C#N)c(=O)n2c1 [Example 11-104, (R)-2-((1-(3-cyano-2-(3-(difluoromethyl)azetidin-1-yl)-7-methyl-4-oxo-4H-pyrido[1,2-a]pyrimidin-9-yl)ethyl)amino)benzoic acid] |
| 0.401 | > 10 | Cc1cc([C@@H](C)Nc2ccccc2C(=O)O)c2nc(N3CC4CCC3CC4O)c(C)c(=O)n2c1 (stereo partly drawn) [Example 11-30, 2-(((1R)-1-(2-(5-hydroxy-2-azabicyclo[2.2.2]octan-2-yl)-3,7-dimethyl-4-oxo-4H-pyrido[1,2-a]pyrimidin-9-yl)ethyl)amino)benzoic acid] |
| 0.309 | > 10 | Cc1cc([C@@H](C)Nc2ccc(Cl)nc2C(=O)O)c2nc(N3CCN(c4ccc(F)cc4)C[C@H]3C)c(C#N)c(=O)n2c1 [Example 11-131, 6-chloro-3-(((R)-1-(3-cyano-2-((R)-4-(4-fluorophenyl)-2-methylpiperazin-1-yl)-7-methyl-4-oxo-4H-pyrido[1,2-a]pyrimidin-9-yl)ethyl)amino)picolinic acid] |
| 0.285 | > 10 | Cc1cc([C@@H](C)Nc2ccccc2C(=O)O)c2nc(N3CCC(F)(F)[C@H]3C)c(C)c(=O)n2c1 [Example 11-123, 2-(((R)-1-(2-((R)-3,3-difluoro-2-methylpyrrolidin-1-yl)-3,7-dimethyl-4-oxo-4H-pyrido[1,2-a]pyrimidin-9-yl)ethyl)amino)benzoic acid] |
| 0.187 | > 10 | Cc1cc([C@@H](C)Nc2ccccc2C(=O)O)c2nc(N3CC(O)C4(CCC4)C3)c(C)c(=O)n2c1 (stereo partly drawn) [Example 11-28, 2-(((1R)-1-(2-(8-hydroxy-6-azaspiro[3.4]octan-6-yl)-3,7-dimethyl-4-oxo-4H-pyrido[1,2-a]pyrimidin-9-yl)ethyl)amino)benzoic acid] |
| 0.325 | > 10 | Cc1cc([C@@H](C)Nc2ccccc2C(=O)O)c2nc(N3CCC4(CC3)CC(F)(F)C4)c(C)c(=O)n2c1 [Example 11-54, (R)-2-((1-(2-(2,2-difluoro-7-azaspiro[3.5]nonan-7-yl)-3,7-dimethyl-4-oxo-4H-pyrido[1,2-a]pyrimidin-9-yl)ethyl)amino)benzoic acid] |
| 0.257 | > 10 | Cc1cc([C@@H](C)Nc2ccccc2C(=O)O)c2nc(N3CCC4(CC3)C(F)(F)C4(F)F)c(C)c(=O)n2c1 [Example 11-213, (R)-2-((1-(3,7-dimethyl-4-oxo-2-(1,1,2,2-tetrafluoro-6-azaspiro[2.5]octan-6-yl)-4H-pyrido[1,2-a]pyrimidin-9-yl)ethyl)amino)benzoic acid] |
| 0.242 | > 10 | Cc1cc([C@@H](C)Nc2ccccc2C(=O)O)c2nc(N3C[C@H](F)C[C@@H](F)C3)c(C#N)c(=O)n2c1 [Example 11-47, 2-(((R)-1-(3-cyano-2-((3R,5R)-3,5-difluoropiperidin-1-yl)-7-methyl-4-oxo-4H-pyrido[1,2-a]pyrimidin-9-yl)ethyl)amino)benzoic acid] |
| 0.15 | > 10 | Cc1cc([C@@H](C)Nc2ccc(C)nc2C(=O)O)c2nc(N3CCC(F)(F)CC3)c(C)c(=O)n2c1 [Example 11-46, (R)-3-((1-(2-(4,4-difluoropiperidin-1-yl)-3,7-dimethyl-4-oxo-4H-pyrido[1,2-a]pyrimidin-9-yl)ethyl)amino)-6-methylpicolinic acid] |
| 0.332 | > 10 | Cc1cc(C(C)Nc2ccccc2C(=O)O)c2nc(N3Cc4ccccc4C3)c(C#N)c(=O)n2c1 (stereo not drawn) [Example 11-349, 2-((1-(3-cyano-2-(isoindolin-2-yl)-7-methyl-4-oxo-4H-pyrido[1,2-a]pyrimidin-9-yl)ethyl)amino)benzoic acid] |
| 0.219 | > 10 | Cc1cc([C@@H](C)Nc2ccccc2C(=O)O)c2nc(N3CCC4(CCO4)CC3)c(C#N)c(=O)n2c1 [Example 11-55, (R)-2-((1-(3-cyano-7-methyl-4-oxo-2-(1-oxa-7-azaspiro[3.5]nonan-7-yl)-4H-pyrido[1,2-a]pyrimidin-9-yl)ethyl)amino)benzoic acid] |
| 0.155 | > 10 | Cc1cc([C@@H](C)Nc2ccccc2C(=O)O)c2nc(N3C[C@H]4C[C@@H]3C(F)(F)C4)c(C)c(=O)n2c1 [Example 11-228, 2-(((R)-1-(2-((1R,4S)-6,6-difluoro-2-azabicyclo[2.2.1]heptan-2-yl)-3,7-dimethyl-4-oxo-4H-pyrido[1,2-a]pyrimidin-9-yl)ethyl)amino)benzoic acid] |
